Source: patent US8138191B2, “Inhibitor compounds and cancer treatment methods” (Critical Outcome Technologies Inc., priority 2007, dated 2012)

Legend:
DMS114 and SHP77 cells = test: Western blotting of AKT pSer473 and AKT phospho-protein targets; assay type: cell-based, human; conditions: for mTOR phospho-Ser 2448: 300 nM, time course
Procedure: Routine laboratory methods were employed for the production of cellular lysates, protein quantification, SDS-PAGE and western blotting. All antibodies were obtained from Cell Signaling and Abcam. To determine total AKT & AKT2 in DMS114 cells, 5×10^4 cells were incubated for 48 h with 10-100 ng of AKT2 siRNA or a scrambled control oligonucleotide. Cells were lysed and 50 μg of protein was separated by SDS-PAGE and blotted with antibody to total AKT or AKT2.
The phospho-AKT status at Ser473 was determined in the presence of COTI-2 utilizing western blotting. […] The inhibition of AKT phosphorylation at Ser473 correlates with the reduction in the phosphorylation of GSK-3α/β (pSer21/9), which is a downstream target of activated phospho-AKT. […] The complete time course of the AKT phospho-Ser473 status in DMS114 and SHP77 cells during incubation with COTI-2 is documented in FIG. 39.
A complex relationship exists between Raptor- and Rictor-containing mTor complexes mTORC1 and mTORC2, respectively, and AKT. mTORC2 activates AKT by Ser473 phosphorylation; in turn, activated AKT phosphorylates TSC2, which prevents its interaction with Rheb and thus the hydrolysis of GTP associated with Rheb. As a result, Rheb-GTP activates mTOR by phosphorylation on Ser2448. […] The results shown in FIGS. 40-45 agree with this hypothesis. […] Phosphorylation of the PTEN C terminal was reported to stabilize PTEN and protect against ubiquitin-mediated degradation (Nat Rev Cancer, 6: 184-192). One implication of this observation is that COTI-2 may activate PTEN and thus, by reducing the amount of PIP3, contribute to the inhibition of AKT activity.

in vitro = in vitro ADME
Procedure: (§1) Commercially obtained (Rockland Immunochemicals Inc.), non-sterile, species-specific plasma (human, monkey, and dog) with sodium anticoagulant added was utilized for this study. […] Dialysis membrane strips (12-14K MWCO) were presoaked in water and ethanol, rinsed and then kept in buffer until use. Following assembly of the 96-well dialysis apparatus, […] membrane strips placed between the dialysis and sample compartments. The dialysate compartment was loaded with 0.15 ml phosphate buffer was added to the dialysis side of each well. Plasma (unfiltered) was spiked with 10 μM COTI-2 (1% DMSO) and 0.15 ml added to the sample side of each well. After loading, samples are covered and incubated at 37° C. until equilibrium was reached (at least 8 hours). Equal volumes of sample were removed from the buffer and plasma sides of each well, diluted with acetonitrile/buffer and centrifuged. Also at this time an additional sample was prepared (in duplicate) by spiking COTI-2 in plasma at 10 μM, followed by sampling and diluting in acetonitrile/buffer in the same manner as the incubated plasma sample. This calibration sample served as the basis of a recovery determination. The supernatants were analyzed by HPLC-MS/MS and the peak response of COTI-2 in both dialysis and sample compartments, and in the calibration sample, were subsequently determined in two independent replicates. […] The HPLC conditions consist of a binary LC pump with autosampler, a C18 column (2×20 mm), and gradient elution. The percent bound to plasma/serum proteins and percent recovery of the compounds were calculated. The recovery determination serves as an indicator as to the reliability of the calculated protein binding value.

dog plasma = test: in vitro; assay type: in vitro ADME; conditions: mixed breeds, 10 µM
Procedure: as §1

human plasma = test: in vitro; assay type: in vitro ADME; conditions: 10 µM
Procedure: as §1

[1] = Metabolic Stability (liver microsomes, human); assay type: in vitro ADME
Procedure: Metabolic stability was determined in human (mixed gender and pool of 50) monkey (male Cynomolgus, pool of 6 or more), dog male, beagle, pool of 4 or more) and rat (male Sprague-Dawley, pool of 100 or more) liver microsomes. […] Four reference substrates (1 μM) were tested simultaneously with COTI-2. […] Peak areas corresponding to COTI-2 were recorded by HPLC-MS/MS. Metabolic stability, expressed as percent of COTI-2 remaining, was calculated by comparing the peak area of COTI-2 at 60 min to time zero.

[2] = system: HCT-116 human colon tumor xenograft; test: HCT-116 human colon tumor xenograft model; conditions: for Deaths: N 10
CYP2E1 = CYP2E1 (Homo sapiens, UniProt P05181); test: CYP2E1 Inhibition (HLM, chlorzoxanzone substrate)
[3] = system: Akt kinase activity in DMS-114 cells; test: Akt kinase activity (immunoprecipitated Akt, GSK-3 phosphorylation), DMS-114; conditions: DMS-114, 250 nM, 8 hrs

CYP2E1, sequence (P05181 whole entry): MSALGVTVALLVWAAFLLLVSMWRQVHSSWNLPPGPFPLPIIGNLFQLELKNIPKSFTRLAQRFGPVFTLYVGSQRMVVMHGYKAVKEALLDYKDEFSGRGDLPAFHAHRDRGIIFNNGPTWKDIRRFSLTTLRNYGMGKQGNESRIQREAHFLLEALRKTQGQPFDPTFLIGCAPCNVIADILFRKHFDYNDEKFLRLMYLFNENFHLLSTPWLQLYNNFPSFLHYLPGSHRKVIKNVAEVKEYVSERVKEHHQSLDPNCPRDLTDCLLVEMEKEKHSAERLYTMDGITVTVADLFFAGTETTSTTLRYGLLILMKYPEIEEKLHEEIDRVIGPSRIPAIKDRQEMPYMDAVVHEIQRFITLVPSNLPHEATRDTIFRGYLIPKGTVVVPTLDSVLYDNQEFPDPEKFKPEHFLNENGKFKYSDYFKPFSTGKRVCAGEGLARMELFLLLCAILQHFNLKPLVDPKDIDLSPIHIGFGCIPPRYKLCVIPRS

Structure (SMILES): S=C(N/N=C1/CCCc2cccnc21)N1CCN(c2ccccn2)CC1 [COTI-2]
- phosphorylation of GSK-3α/β (pSer21/9) (DMS114 and SHP77 cells; 250 nM): reduction
- AKT Ser473 phosphorylation (DMS114 and SHP77 cells; 250 nM, 2 h): profound inhibition
- PTEN phospho-Ser380 (DMS114 and SHP77 cells; DMS114 cells): strong but transient increase
- mTOR phospho-Ser 2448 (DMS114 and SHP77 cells; DMS114 cells): initial decrease in phospho-Ser 2448 at 2 hrs followed by a more sustained decrease at 24 and 48 hrs
- mTOR phospho-Ser 2448 (DMS114 and SHP77 cells; SHP77 cells): only the decrease at 2 hrs of incubation was observed
- recovery at 10 µM (in vitro; human, % Recovery 1st): 6.7%
- recovery at 10 µM (in vitro; human, % Recovery 2nd): 2.9%
- recovery at 10 µM (in vitro; human, % Recovery Mean): 4.8%
- recovery at 10 µM (in vitro; human, percent recovery): < 50%
- recovery at 10 µM (in vitro; mixed breeds, dog, % Recovery 1st): 42.6%
- recovery at 10 µM (in vitro; mixed breeds, dog, % Recovery 2nd): 32.8%
- recovery at 10 µM (in vitro; mixed breeds, dog, % Recovery Mean): 37.7%
- recovery at 10 µM (in vitro; mixed breeds, dog, percent recovery): < 50%
- % Protein Bound 1st (dog plasma): 99.1%
- % Protein Bound 2nd (dog plasma): 99.7%
- % Protein Bound Mean (dog plasma): 99.4%
- percent protein bound (dog plasma): > 99%
- % Protein Bound 1st (human plasma): 99.8%
- % Protein Bound 2nd (human plasma): >99.9%
- % Protein Bound Mean (human plasma): 99.8%
- percent protein bound (human plasma): > 99%
- percent remaining at 60 min ([1]; 1.0 μM): 31%
- Mean Parent Remaining ([1]; 1.0E−06 M, 60 min, mean): 31%
- Day 15 Mean tumor weight ([2]; COTI-2 12.5 mg/kg IV): 1,471.3 ± 155.9 mg
- Mean survival (Day ± SEM) ([2]; COTI-2 12.5 mg/kg IV): 12.8 ± 0.76 days
- Maximum weight loss (%) (Day #) ([2]; COTI-2 12.5 mg/kg IV, Day 17): 20.96%
- Deaths ([2]; COTI-2 12.5 mg/kg IV): 1
- Day 15 Mean tumor weight ([2]; COTI-2 50.0 mg/kg IV): 1,353.4 ± 127.3 mg
- Mean survival (Day ± SEM) ([2]; COTI-2 50.0 mg/kg IV): 12.6 ± 0.83 days
- Maximum weight loss (%) (Day #) ([2]; COTI-2 50.0 mg/kg IV, Day 22): 18.43%
- Deaths ([2]; COTI-2 50.0 mg/kg IV): 2
- percent inhibition (CYP2E1; CYP2E1, 10 μM): below 50%
- % Inhibition of Control Values (CYP2E1; CYP2E1, HLM, chlorzoxazone substrate, 1.0E−05 M): −2%
- Akt kinase activity [3]: below the threshold for measurement
